Source: PubChem BioAssay (NCI)
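Cultured in 96-well plates, cells were exposed to test compound for 48 hours across five concentrations. GI50 marks 50% less growth. TGI marks complete inhibition of growth.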

Test system: MDA-MB-468 breast
Test: inhibition of tumour cell growth, NCI panel, 48 h

Question: How did the GI50 turn out when `CN1CCN(c2ccc(-c3cccc(CN4CCOCC4)c3)cc2NC(=O)c2c[nH]c(=O)cc2C(F)(F)F)CC1` was run?
Answer: 20200 nM

Question: And the TGI?
Answer: 92500 nM

Question: What does the source list for `CCCCCCCCCCCCC(NC(C)=O)(C(=O)OCC)C(=O)OCC`?
Answer: GI50: 4670 nM; TGI: 18600 nM

Question: `CC[C@]12C=CCN3CC[C@@]4(c5cc(NC(=O)COc6cc(O)c7c(=O)cc(-c8ccccc8)oc7c6)c(OC)cc5N(C)[C@H]4[C@@](O)(C(=O)OC)[C@@H]1OC(C)=O)[C@@H]32` was tested. Which GI50 did it give?
Answer: 1520 nM

Question: And the TGI?
Answer: 3000 nM

Question: With `COC1C(O)CC(OC2CC(OC3CC(O[C@@H]4C(=O)c5c(cc6cc(OC7CC(OC8CC(O)C(O)C(C)O8)C(O)C(C)O7)c(C)c(O)c6c5O)CC4[C@H](OC)[C@@H](O)C(C)=O)OC(C)C3O)OC(C)C2O)OC1C` (stereo partly specified) as the compound, how does the GI50 read?
Answer: 25.6 nM

Question: And the TGI?
Answer: 2650 nM

Question: `COc1ccc(C(=O)c2cc(C)c(OC)c(C)c2)c(OC)c1N(C(=O)CCl)C(=O)CCl` was tested. Which GI50 did it give?
Answer: 29.6 nM

Question: What about the TGI of the same compound?
Answer: 1370 nM

Question: With `C#C[C@]1(O)CC[C@H]2[C@@H]3CC=C4c5sc(Nc6ccc(C)cn6)nc5CC[C@]4(C)[C@H]3CC[C@@]21C` as the compound, how does the GI50 read?
Answer: 1070 nM

Question: What about the TGI of the same compound?
Answer: 3130 nM

Question: With `COC(=O)CCCNC(=O)C(=O)c1c(O)c(O)c(C(C)C)c2cc(C)c(-c3c(C)cc4c(C(C)C)c(O)c(O)c(C(=O)C(=O)NCCCC(=O)OC)c4c3O)c(O)c12` as the compound, how does the GI50 read?
Answer: 364 nM

Question: And the TGI?
Answer: 2970 nM

Question: For `CC(=Nc1ccccc1)C1=C(O)C(Cc2ccc(F)cc2)NC1=O` (stereo unspecified), which GI50 is on record?
Answer: 382 nM

Question: And the TGI?
Answer: 5220 nM

Question: How did the GI50 turn out when `C[C@@H]1OC(=O)NN=C1c1ccc(-c2ccc(F)cc2)c(C(F)(F)F)c1` was run?
Answer: 1740 nM

Question: And the TGI?
Answer: 6610 nM

Question: `Cc1ccc2c(n1)C(=O)C(Cl)=C(Nc1ccc(C#N)cc1)C2=O` was tested. Which GI50 did it give?
Answer: 1780 nM

Question: And the TGI?
Answer: 3810 nM

Question: For `Cc1ccccc1C[P+](c1ccccc1)(c1ccccc1)c1ccccc1`, which GI50 is on record?
Answer: 265 nM

Question: What about the TGI of the same compound?
Answer: 1160 nM

Question: What does the source list for `O=C(Nc1ccc(-n2ccc3c(NC(=O)c4ccccc4)nccc32)cc1)c1ccc(N2CCOCC2)c(C(F)(F)F)c1`?
Answer: GI50: 1740 nM; TGI: 19200 nM

Question: With `CCCCCCCCCC[N+](C)(C)C` as the compound, how does the GI50 read?
Answer: 430 nM

Question: And the TGI?
Answer: 2790 nM

Question: `CCN(CC)CCOc1ccc(Cc2ccccc2)cc1` was tested. Which GI50 did it give?
Answer: 16200 nM

Question: And the TGI?
Answer: 41200 nM

Question: Which GI50 does the source give for `Cc1cc(C)c(O)c(CNCCCNCc2cc(C)cc(C)c2O)c1` here?
Answer: 1690 nM

Question: And the TGI?
Answer: 3240 nM

Question: For `CCCC(=O)Nc1c(I)cc(I)c(CC(CC)C(=O)O)c1I` (stereo unspecified), which GI50 is on record?
Answer: > 100000 nM

Question: And the TGI?
Answer: > 100000 nM

Question: Which GI50 does the source give for `O=S(=O)(NCCNc1cc(-c2cn(-c3ccccc3)nc2-c2cccc(O)c2)ccn1)c1ccc(Br)cc1` here?
Answer: 2700 nM

Question: What about the TGI of the same compound?
Answer: 7790 nM

Question: What does the source list for `C#CCOc1ccc(-c2csc(NC(=O)C=C)n2)cc1NS(=O)(=O)c1cccc2c(N(C)C)cccc12`?
Answer: GI50: 823 nM; TGI: 1710 nM

Question: How did the GI50 turn out when `O=C1CCC(N2C(=O)c3cccc(NCCOCCOCCNC(=O)c4cc5c(o4)C(=O)c4ccccc4C5=O)c3C2=O)C(=O)N1` (stereo unspecified) was run?
Answer: 1460 nM

Question: And the TGI?
Answer: 3880 nM

Question: For `COCC(=O)NC/C=C/c1ccc2ncnc(Nc3ccc(Oc4ccc(C)nc4)c(C)c3)c2c1`, which GI50 is on record?
Answer: 1960 nM

Question: And the TGI?
Answer: 10300 nM

Question: What does the source list for `C[C@@]1(O)CCC[C@H]1n1c(=O)c(C(F)F)cc2cnc(NC3CCN(S(C)(=O)=O)CC3)nc21`?
Answer: GI50: 1610 nM; TGI: 4760 nM

Question: What does the source list for `CCCCCC(=C/c1ccccc1)/C=N/N=C(N)N`?
Answer: GI50: 1560 nM; TGI: 3000 nM

Question: Which results are given for `N#Cc1ccc(NC(=O)Nc2nc3ccc(OC(F)(F)F)cc3s2)cc1`?
Answer: GI50: 460 nM; TGI: 4840 nM
